Reference: PMC12042115 (mLife, 2025)
Values joined by “and” are separate entries in the source; they are usually repeats but may differ in a detail not shown here. Identical values can stand only once. Like-named read-outs stand apart in the source and are kept apart here.

Tested on: wild‐type BCG cells
Format: cell-based, M. bovis BCG
Settings: for Mean Ratio (GDI5755_2d vs DMSO_2d): 2d; for Ratio: single ratios, GDI5755_3d vs DMSO_3d

Q: What does the source list for `O=C(Oc1ccc(Cl)cc1)c1ccc(N2CCOCC2)c([N+](=O)[O-])c1` [GDI‐5755]?
A: Mean Ratio (GDI5755_2d vs DMSO_2d) (protein BCG_3079c A0A0H3M8N0 NADPH-dependent FMN reductase-like domain-containing protein，FMN reductase, up-regulated): 1.67; Mean Ratio (GDI5755_2d vs DMSO_2d) (protein BCG_3185c A0A0H3M8B9 Possible dioxygenase, up-regulated): 2.02; Mean Ratio (GDI5755_2d vs DMSO_2d) (protein BCG_3281c A0A0H3MAS0 Probable transmembrane alkane 1-monooxygenase alkB, up-regulated): 1.48; Mean Ratio (GDI5755_2d vs DMSO_2d) (protein BCG_3298 A0A0H3MAT3 DUF1490 family protein, up-regulated): 1.92; Mean Ratio (GDI5755_2d vs DMSO_2d) (protein BCG_3319c A0A0H3MAV3 L-lysine 6-transaminase, up-regulated): 1.48; Mean Ratio (GDI5755_2d vs DMSO_2d) (protein BCG_3476 A0A0H3MB64 Probable dioxygenase, up-regulated): 1.55; Mean Ratio (GDI5755_2d vs DMSO_2d) (protein BCG_3588 A0A0H3M9C1 Probable conserved membrane protein, up-regulated): 1.81; Mean Ratio (GDI5755_2d vs DMSO_2d) (protein BCG_3590 A0A0H3MBE7 Rieske-type oxygenase, up-regulated): 1.45; Mean Ratio (GDI5755_2d vs DMSO_2d) (protein BCG_3591 A0A0H3MID2 Uncharacterized protein,BCG_3591, up-regulated): 1.62; Mean Ratio (GDI5755_2d vs DMSO_2d) (protein BCG_3826c A1KQ98 Putative S-adenosyl-L-methionine-dependent methyltransferase BCG_3826c, up-regulated): 1.54; Mean Ratio (GDI5755_2d vs DMSO_2d) (protein BCG_3917c A0A0H3MJE2 Monooxygenase ethA, up-regulated): 1.44; Mean_Ratio_GDI5755_2d-VS-WT_2d_control (s002 sheet P value, unrounded): 3.462 and 2.763 and 2.713 and 2.648 and 2.17; Mean_Ratio_GDI5755_2d-VS-WT_2d_control (s002 sheet annot_file, c8 (rounded)): 1.08 and 0.90 and 1.06 and 0.93 and 0.81; Mean_Ratio_GDI5755_2d-VS-WT_2d_control (s002 sheet annot_file, c9 (unrounded)): 1.083 and 0.8951 and 1.059 and 0.9258 and 0.8124; Mean_Ratio_GDI5755_3d-VS-WT_3d_control (s003 sheet P value): 3.94 and 2.77 and 2.53 and 2.26 and 2.25; Mean_Ratio_GDI5755_3d-VS-WT_3d_control (s003 sheet annot_file): 1.18 and 1.02 and 1.00; Ratio (protein A0A0G2Q9F3, BCG_0030c (Rv3924c), Large ribosomal subunit protein bL34): 0.8126 and 0.7464 and 0.864 and 0.7929; Ratio (protein A0A0H3M7L0, BCG_2659c (Rv2632c), DUF1876 domain-containing protein): 0.6783 and 0.84 and 0.8345 and 0.8579; Ratio (protein A0A0H3M8R4, BCG_3395 (Rv1267c), Possible transcriptional regulatory protein embR2): 0.7934 and 0.8013 and 0.8041 and 0.8107; Ratio (protein A0A0H3M499, BCG_1243 (Rv1180/Rv1181), Probable polyketide beta-ketoacyl synthase pks3): 0.7824 and 0.8155 and 0.7985 and 0.8135; Ratio (protein A0A0H3M677, BCG_1564 (Rv1500), Probable glycosyltransferase): 0.8075 and 0.8276 and 0.7828 and 0.8014; Ratio (protein A0A0H3MA33, BCG_1381c (Rv1320c), Possible adenylate cyclase): 0.785 and 0.7965 and 0.7852 and 0.8412; Ratio (protein A0A0H3MBI4, BCG_2001A (Rv1962A), Antitoxin VapB35): 0.8087 and 0.8452 and 0.7652 and 0.7971; Ratio (protein A0A0H3MBL1, BCG_3682c (Rv3624c), Hypoxanthine phosphoribosyltransferase): 0.7684 and 0.8491 and 0.778 and 0.8193; Ratio (protein A0A0H3MDB0, BCG_2775c (Rv2759c), Ribonuclease VapC): 0.8535 and 0.7284 and 0.8794 and 0.7453; Ratio (protein A1KPC8, BCG_3507c (Rv3441c), Phosphoglucosamine mutase): 0.7677 and 0.7655 and 0.8493 and 0.8355; proteome downregulated (third day, 2×MIC): 49.6%; Mean_Ratio (GDI5755_3d vs DMSO_3d), protein BCG_0130 (up-regulated, A0A0H3M0N8, Mtb Rv0097, Possible oxidoreductase): 1.5; Mean_Ratio (GDI5755_3d vs DMSO_3d), protein BCG_0176 (up-regulated, A0A0H3M1F5, Mtb MRA_0147, DUF427 domain-containing protein): 1.5; Mean_Ratio (GDI5755_3d vs DMSO_3d), protein BCG_0623c (up-regulated, A0A0H3M1W6, Mtb Rv0578c, PE-PGRS family protein): 1.8; Mean_Ratio (GDI5755_3d vs DMSO_3d), protein BCG_0353 (up-regulated, A0A0H3M1Y1, Mtb Rv0313, Transmembrane protein): 1.6; Mean_Ratio (GDI5755_3d vs DMSO_3d), protein BCG_0227 (up-regulated, A0A0H3M2R5, Mtb Rv0190, Copper-sensing transcriptional repressor RicR): 1.4; Mean_Ratio (GDI5755_3d vs DMSO_3d), protein BCG_0726c (up-regulated, A0A0H3M2T8, Mtb Rv0677c, Possible conserved membrane protein mmpS5): 1.4; Mean_Ratio (GDI5755_3d vs DMSO_3d), protein BCG_1249 (up-regulated, A0A0H3M3D0, Mtb Rv1187, L-glutamate gamma-semialdehyde dehydrogenase): 1.6; Mean_Ratio (GDI5755_3d vs DMSO_3d), protein BCG_1334 (up-regulated, A0A0H3M3I9, Mtb Rv1275, Lipoprotein lprC): 1.3; Mean_Ratio (GDI5755_3d vs DMSO_3d), protein A0A0H3M3L0Rv1303 (up-regulated, A0A0H3M3L0, Conserved hypothetical transmembrane protein): 1.4; Mean_Ratio (GDI5755_3d vs DMSO_3d), protein BCG_0507 (up-regulated, A0A0H3M3L9, Mtb Rv0467, isocitrate lyase): 1.5; Mean_Ratio (GDI5755_3d vs DMSO_3d), protein BCG_1404c (up-regulated, A0A0H3M3N1, Mtb Rv1342c, Conserved membrane protein): 1.5; Mean_Ratio (GDI5755_3d vs DMSO_3d), protein BCG_1053 (up-regulated, A0A0H3M3P8, Mtb MRA_1004, Uncharacterized protein): 1.5; Mean_Ratio (GDI5755_3d vs DMSO_3d), protein BCG_1472c (up-regulated, A0A0H3M3S8, Mtb Rv1411c, Lipoarabinomannan carrier protein LprG): 1.4; Mean_Ratio (GDI5755_3d vs DMSO_3d), protein BCG_0578c (up-regulated, A0A0H3M3U8, Mtb Rv0534c, 1,4-dihydroxy-2-naphthoate octaprenyltransferase, menA): 1.9; Mean_Ratio (GDI5755_3d vs DMSO_3d), protein BCG_1661c (up-regulated, A0A0H3M4E4, Mtb Rv1623c, integral membrane cytochrome D ubiquinol oxidase (Subunit I) cydA): 1.6; Mean_Ratio (GDI5755_3d vs DMSO_3d), protein BCG_1022 (up-regulated, A0A0H3M4W6, Mtb Rv0968, DUF1490 family protein): 1.5; Mean_Ratio (GDI5755_3d vs DMSO_3d), protein BCG_1787 (up-regulated, A0A0H3M5K5, Mtb Rv1748, DUF4129 domain-containing protein): 1.4; Mean_Ratio (GDI5755_3d vs DMSO_3d), protein BCG_1584c (up-regulated, A0A0H3M6A1, Mtb Rv1532c, Thioesterase domain-containing protein): 1.3; Mean_Ratio (GDI5755_3d vs DMSO_3d), protein BCG_1795c (up-regulated, A0A0H3M6T8, Mtb MRA_1768B, Uncharacterized protein): 1.4; Mean_Ratio (GDI5755_3d vs DMSO_3d), protein BCG_1998c (up-regulated, A0A0H3M7D9, Mtb Rv1959c, Toxin ParE1): 1.4; Mean_Ratio (GDI5755_3d vs DMSO_3d), protein BCG_2583 (up-regulated, A0A0H3M7F6, Mtb Rv2560, proline and glycine rich transmembrane protein): 1.7; Mean_Ratio (GDI5755_3d vs DMSO_3d), protein BCG_0282c (up-regulated, A0A0H3M7K8, Mtb Rv0244c, acyl-CoA dehydrogenase fadE5): 1.6; Mean_Ratio (GDI5755_3d vs DMSO_3d), protein BCG_0287c (up-regulated, A0A0H3M7L3, Mtb Rv0249c, Succinate dehydrogenase [membrane anchor subunit]): 1.4; Mean_Ratio (GDI5755_3d vs DMSO_3d), protein BCG_2072c (up-regulated, A0A0H3M7M3, Mtb Rv2053c, transmembrane protein): 1.6; Mean_Ratio (GDI5755_3d vs DMSO_3d), protein BCG_2723 (up-regulated, A0A0H3M7S6, Mtb Rv2710, RNA polymerase sigma factor, sigB): 1.3; Mean_Ratio (GDI5755_3d vs DMSO_3d), protein BCG_0422c (up-regulated, A0A0H3M7W9, Mtb Rv0384c, Chaperone protein ClpB): 1.5; Mean_Ratio (GDI5755_3d vs DMSO_3d), protein BCG_3185c (up-regulated, A0A0H3M8B9, Mtb Rv3161c, Dioxygenase): 2.2; Mean_Ratio (GDI5755_3d vs DMSO_3d), protein BCG_3195c (up-regulated, A0A0H3M8D0, Mtb Rv3171c, Possible non-heme haloperoxidase hpx): 1.4; Mean_Ratio (GDI5755_3d vs DMSO_3d), protein BCG_0728c (up-regulated, A0A0H3M8M0, Mtb Rv0679c, Conserved hypothetical threonine rich protein): 1.4; Mean_Ratio (GDI5755_3d vs DMSO_3d), protein BCG_3079c (up-regulated, A0A0H3M8N0, Mtb Rv3054c, NADPH-dependent FMN reductase-like domain-containing protein): 2.0; Mean_Ratio (GDI5755_3d vs DMSO_3d), protein BCG_3084 (up-regulated, A0A0H3M8N5, Mtb Rv3059, Probable cytochrome P450 136 cyp136): 1.3; Mean_Ratio (GDI5755_3d vs DMSO_3d), protein BCG_3153c (up-regulated, A0A0H3M8U1, Mtb Rv3130c, Diacylglycerol O-acyltransferase): 1.4; Mean_Ratio (GDI5755_3d vs DMSO_3d), protein BCG_2517c (up-regulated, A0A0H3M8U9, Mtb Rv2497c, Probable pyruvate dehydrogenase E1 component (Alpha subunit) pdhA): 1.4; Mean_Ratio (GDI5755_3d vs DMSO_3d), protein BCG_3184c (up-regulated, A0A0H3M8V5, Mtb Rv3160c, Possible transcriptional regulatory protein (Probably tetR-family)): 1.4; Mean_Ratio (GDI5755_3d vs DMSO_3d), protein BCG_3588 (up-regulated, A0A0H3M9C1, Mtb Rv3524, Serine/threonine-protein kinase PknD(NU-6027 target)): 1.8; Mean_Ratio (GDI5755_3d vs DMSO_3d), protein BCG_2721c (up-regulated, A0A0H3M9C3, Mtb Rv2708c, DUF3039 domain-containing protein): 1.4; Mean_Ratio (GDI5755_3d vs DMSO_3d), protein BCG_1115 (up-regulated, A0A0H3M9F1, Mtb Rv1057, YVTN family beta-propeller repeat protein): 1.5; Mean_Ratio (GDI5755_3d vs DMSO_3d), protein BCG_1130 (up-regulated, A0A0H3M9G5, conserved transmembrane protein): 1.5; Mean_Ratio (GDI5755_3d vs DMSO_3d), protein BCG_2810c (up-regulated, A0A0H3M9L8, Mtb Rv2792c, Possible resolvase): 1.5
